Measured values: patent US20200262877A1, “ION CHANNEL-BINDING PEPTIDES AND METHODS OF USE THEREOF” (priority 2017, published 2020)
Where two headings read alike, the source gives them in different places. Where a SMILES comes first, the peptide text is derived from it. Bridges are numbered along the chain shown (N, C = ends).

What was measured:
panel of 20 ion channels = type: cell-based; conditions: potassium channels of the panel; 0.2 or 20 μM; FIG. 2
Description: This example describes a method for assaying ion channel activity in cells.
Peptides were screened in duplicate at final concentrations of 20 μM and 200 nM, as determined by amino acid analysis, and diluted into HEPES buffered physiological saline (HBPS). HEK293 or CHO cells from the American Type Culture Collection (ATCC) were transfected with the appropriate ion channel before use. HEK293 cells were grown in Dulbecco's Modified Eagle Medium/Nutrient Mixture F-12, and CHO cells were cultured in Ham's F-12 media. All cultures were supplemented with 10% fetal bovine serum, 100 U/ml penicillin G, 100 μg/ml streptomycin sulfate, and the appropriate selection antibiotics. Prior to use, cells were washed twice with Hank's Balanced Salt Solution, and treated with Accutase cell detachment solution (Sigma-Aldrich). Cells were then washed. Peptides and controls were incubated with cells for at least five minutes.
Percent inhibition was defined as: (1-(Ipeptide/Icontrol))×100%).
Percent values were calculated using the following formula: % activation=(IPeptide/Icontrol)×100%, where IPeptide is the current produced by co-application a peptide with agonist, and Icontrol refers to the current produced by stimulation in control. Control used for each ion channel is the reference compound matched to a particular channel, as illustrated in TABLE 10 below.

hERG = hERG (Homo sapiens, UniProt Q12809); experiment: in vitro; conditions: 0.2 or 20 μM; FIG. 2
How it was run: (§1)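 Peptides were tested in duplicate at final 20 μM and 200 nM, with concentration set by amino acid analysis, in HEPES-buffered saline. They were applied for at least 5 min to HEK293 or CHO cells transfected with each channel. Currents were expressed as % inhibition, 1-(Ipeptide/Icontrol)×100, or % activation, Ipeptide/Icontrol×100, against a channel-matched reference compound.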

Kv1.3 [1] = molecular target: T1, Kv1.3 (Homo sapiens, UniProt P22001); experiment: cell-based; type: cell-based; conditions: for activity at 20 µM: peptide at 20 μM
T1 construct: host or cells: HEK293 or CHO
How it was run: as §1

Nav1.7 = molecular target: T2, Nav1.7 (Homo sapiens, UniProt Q15858); experiment: cell-based; type: cell-based; conditions: 0.2 or 20 μM; FIG. 2
T2 construct: host or cells: HEK293 or CHO

[2] = molecular target: T3, Nav1.5 cardiac sodium channel (human SCN5A gene) (Homo sapiens, UniProt Q14524); conditions: read-out: IC50 Nav1.5 ion channel inhibition, TP2; human Nav1.5 in CHO cells; TP2 (inactivated state inhibition)
[3] = molecular target: T3, Nav1.5 cardiac sodium channel (human SCN5A gene); experiment: cell-based
[4] = molecular target: Kv1.3 potassium channel (human KCNA3 gene) (Homo sapiens, UniProt P22001); experiment: cell-based; design: host or cells: CHO; conditions: human Kv1.3 in CHO cells
[5] = molecular target: Kv1.5 potassium channel (human KCNA5 gene) (Homo sapiens, UniProt P22460); experiment: cell-based; design: host or cells: CHO; conditions: human Kv1.5 in CHO cells
[6] = molecular target: Nav1.3 sodium channel (human SCN3A gene) (Homo sapiens, UniProt Q9NY46); experiment: cell-based; design: host or cells: CHO; conditions: human Nav1.3 in CHO cells
[7] = molecular target: Nav1.4 sodium channel (human SCN4A gene) (Homo sapiens, UniProt P35499); experiment: cell-based; design: host or cells: CHO; conditions: human Nav1.4 in CHO cells
[8] = molecular target: Nav1.7 sodium channel (human SCN9A gene) (Homo sapiens, UniProt Q15858); experiment: cell-based; design: expressed in transfected cells; host or cells: CHO cells; conditions: human Nav1.7 in CHO cells
Kv1.3 [9] = molecular target: T1, Kv1.3; conditions: prior reports; cited from earlier work
Kv1.1 = molecular target: T4, Kv1.1 (Homo sapiens, UniProt Q09470); experiment: cell-based; type: cell-based; conditions: Kv1.1; peptide at 20 μM; percentage of control, 100% = no change; read-out: Ion channel activity (ion channel inhibition)
T4 construct: host or cells: HEK293 or CHO
How it was run: as §1

[10] = molecular target: T3, Nav1.5 cardiac sodium channel (human SCN5A gene); experiment: in vitro
[11] = Kv1.3, percentage of control, 100% = no change, read-out: Ion channel activity (ion channel inhibition)

T3 sequence (Q14524 whole entry): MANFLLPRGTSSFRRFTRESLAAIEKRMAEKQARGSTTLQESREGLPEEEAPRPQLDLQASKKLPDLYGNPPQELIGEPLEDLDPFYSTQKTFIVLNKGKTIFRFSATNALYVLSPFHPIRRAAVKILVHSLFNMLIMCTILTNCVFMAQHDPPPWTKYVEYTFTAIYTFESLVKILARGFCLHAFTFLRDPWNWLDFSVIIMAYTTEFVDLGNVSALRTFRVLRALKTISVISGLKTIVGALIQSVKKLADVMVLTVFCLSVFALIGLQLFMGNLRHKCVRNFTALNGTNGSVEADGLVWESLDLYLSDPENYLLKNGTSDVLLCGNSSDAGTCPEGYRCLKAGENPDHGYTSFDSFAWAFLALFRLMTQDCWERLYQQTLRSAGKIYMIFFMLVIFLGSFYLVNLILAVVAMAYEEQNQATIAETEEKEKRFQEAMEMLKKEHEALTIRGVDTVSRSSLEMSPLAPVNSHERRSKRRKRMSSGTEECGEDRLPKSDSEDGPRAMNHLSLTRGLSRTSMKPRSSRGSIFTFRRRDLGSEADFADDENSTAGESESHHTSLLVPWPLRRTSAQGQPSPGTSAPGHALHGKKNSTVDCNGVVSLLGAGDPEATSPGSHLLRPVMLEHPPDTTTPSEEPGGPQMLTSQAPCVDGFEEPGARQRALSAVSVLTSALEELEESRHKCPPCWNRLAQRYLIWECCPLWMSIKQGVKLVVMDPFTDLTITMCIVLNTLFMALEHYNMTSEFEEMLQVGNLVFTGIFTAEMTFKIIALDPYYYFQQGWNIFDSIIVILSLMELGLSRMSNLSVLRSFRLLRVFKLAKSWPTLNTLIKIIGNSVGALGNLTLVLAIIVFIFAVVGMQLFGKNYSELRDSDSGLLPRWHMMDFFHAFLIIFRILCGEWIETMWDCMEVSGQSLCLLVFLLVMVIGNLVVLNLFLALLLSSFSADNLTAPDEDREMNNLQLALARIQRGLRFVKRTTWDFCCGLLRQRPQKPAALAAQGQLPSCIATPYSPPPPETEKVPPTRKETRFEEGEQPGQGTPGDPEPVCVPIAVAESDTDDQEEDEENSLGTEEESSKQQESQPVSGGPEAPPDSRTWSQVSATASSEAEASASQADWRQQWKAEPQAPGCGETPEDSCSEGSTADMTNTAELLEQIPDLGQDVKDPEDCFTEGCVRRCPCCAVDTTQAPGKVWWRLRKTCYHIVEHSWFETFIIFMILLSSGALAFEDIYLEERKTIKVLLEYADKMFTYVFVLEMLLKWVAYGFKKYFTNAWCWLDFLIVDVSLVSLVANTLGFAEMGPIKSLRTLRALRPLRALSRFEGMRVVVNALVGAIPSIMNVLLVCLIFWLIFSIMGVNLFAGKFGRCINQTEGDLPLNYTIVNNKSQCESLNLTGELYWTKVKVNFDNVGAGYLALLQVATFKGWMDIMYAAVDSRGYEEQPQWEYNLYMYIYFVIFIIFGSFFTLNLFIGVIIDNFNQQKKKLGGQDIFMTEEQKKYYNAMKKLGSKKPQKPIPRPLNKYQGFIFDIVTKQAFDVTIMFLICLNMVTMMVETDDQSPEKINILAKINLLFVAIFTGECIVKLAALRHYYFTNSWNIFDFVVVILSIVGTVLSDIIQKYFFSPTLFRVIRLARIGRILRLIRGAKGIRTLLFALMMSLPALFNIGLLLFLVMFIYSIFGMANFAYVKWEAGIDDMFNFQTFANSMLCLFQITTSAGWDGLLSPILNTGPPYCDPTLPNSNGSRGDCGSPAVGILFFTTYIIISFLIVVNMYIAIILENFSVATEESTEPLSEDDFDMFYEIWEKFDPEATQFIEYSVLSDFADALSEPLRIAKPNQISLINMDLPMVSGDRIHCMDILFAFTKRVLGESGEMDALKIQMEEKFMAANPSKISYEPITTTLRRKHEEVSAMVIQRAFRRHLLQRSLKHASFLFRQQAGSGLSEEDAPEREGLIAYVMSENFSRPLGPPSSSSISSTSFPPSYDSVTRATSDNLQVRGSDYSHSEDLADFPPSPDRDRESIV
T1 sequence (P22001 whole entry): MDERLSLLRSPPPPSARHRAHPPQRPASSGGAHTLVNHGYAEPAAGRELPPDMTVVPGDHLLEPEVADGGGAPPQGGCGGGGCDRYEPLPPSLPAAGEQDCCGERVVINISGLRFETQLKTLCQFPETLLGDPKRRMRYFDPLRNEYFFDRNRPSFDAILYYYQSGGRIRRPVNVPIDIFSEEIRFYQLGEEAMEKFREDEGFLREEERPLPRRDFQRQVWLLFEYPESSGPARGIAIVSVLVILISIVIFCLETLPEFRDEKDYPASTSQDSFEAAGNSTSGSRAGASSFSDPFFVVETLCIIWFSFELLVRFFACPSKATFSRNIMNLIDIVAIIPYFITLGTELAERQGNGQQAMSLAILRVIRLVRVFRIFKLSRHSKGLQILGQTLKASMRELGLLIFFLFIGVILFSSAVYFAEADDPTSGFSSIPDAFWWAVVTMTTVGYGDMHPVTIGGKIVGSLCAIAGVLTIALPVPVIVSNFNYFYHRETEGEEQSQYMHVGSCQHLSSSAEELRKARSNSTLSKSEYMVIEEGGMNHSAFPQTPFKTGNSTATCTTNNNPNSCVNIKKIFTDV
Nav1.7 sodium channel (human SCN9A gene), sequence (Q15858 whole entry): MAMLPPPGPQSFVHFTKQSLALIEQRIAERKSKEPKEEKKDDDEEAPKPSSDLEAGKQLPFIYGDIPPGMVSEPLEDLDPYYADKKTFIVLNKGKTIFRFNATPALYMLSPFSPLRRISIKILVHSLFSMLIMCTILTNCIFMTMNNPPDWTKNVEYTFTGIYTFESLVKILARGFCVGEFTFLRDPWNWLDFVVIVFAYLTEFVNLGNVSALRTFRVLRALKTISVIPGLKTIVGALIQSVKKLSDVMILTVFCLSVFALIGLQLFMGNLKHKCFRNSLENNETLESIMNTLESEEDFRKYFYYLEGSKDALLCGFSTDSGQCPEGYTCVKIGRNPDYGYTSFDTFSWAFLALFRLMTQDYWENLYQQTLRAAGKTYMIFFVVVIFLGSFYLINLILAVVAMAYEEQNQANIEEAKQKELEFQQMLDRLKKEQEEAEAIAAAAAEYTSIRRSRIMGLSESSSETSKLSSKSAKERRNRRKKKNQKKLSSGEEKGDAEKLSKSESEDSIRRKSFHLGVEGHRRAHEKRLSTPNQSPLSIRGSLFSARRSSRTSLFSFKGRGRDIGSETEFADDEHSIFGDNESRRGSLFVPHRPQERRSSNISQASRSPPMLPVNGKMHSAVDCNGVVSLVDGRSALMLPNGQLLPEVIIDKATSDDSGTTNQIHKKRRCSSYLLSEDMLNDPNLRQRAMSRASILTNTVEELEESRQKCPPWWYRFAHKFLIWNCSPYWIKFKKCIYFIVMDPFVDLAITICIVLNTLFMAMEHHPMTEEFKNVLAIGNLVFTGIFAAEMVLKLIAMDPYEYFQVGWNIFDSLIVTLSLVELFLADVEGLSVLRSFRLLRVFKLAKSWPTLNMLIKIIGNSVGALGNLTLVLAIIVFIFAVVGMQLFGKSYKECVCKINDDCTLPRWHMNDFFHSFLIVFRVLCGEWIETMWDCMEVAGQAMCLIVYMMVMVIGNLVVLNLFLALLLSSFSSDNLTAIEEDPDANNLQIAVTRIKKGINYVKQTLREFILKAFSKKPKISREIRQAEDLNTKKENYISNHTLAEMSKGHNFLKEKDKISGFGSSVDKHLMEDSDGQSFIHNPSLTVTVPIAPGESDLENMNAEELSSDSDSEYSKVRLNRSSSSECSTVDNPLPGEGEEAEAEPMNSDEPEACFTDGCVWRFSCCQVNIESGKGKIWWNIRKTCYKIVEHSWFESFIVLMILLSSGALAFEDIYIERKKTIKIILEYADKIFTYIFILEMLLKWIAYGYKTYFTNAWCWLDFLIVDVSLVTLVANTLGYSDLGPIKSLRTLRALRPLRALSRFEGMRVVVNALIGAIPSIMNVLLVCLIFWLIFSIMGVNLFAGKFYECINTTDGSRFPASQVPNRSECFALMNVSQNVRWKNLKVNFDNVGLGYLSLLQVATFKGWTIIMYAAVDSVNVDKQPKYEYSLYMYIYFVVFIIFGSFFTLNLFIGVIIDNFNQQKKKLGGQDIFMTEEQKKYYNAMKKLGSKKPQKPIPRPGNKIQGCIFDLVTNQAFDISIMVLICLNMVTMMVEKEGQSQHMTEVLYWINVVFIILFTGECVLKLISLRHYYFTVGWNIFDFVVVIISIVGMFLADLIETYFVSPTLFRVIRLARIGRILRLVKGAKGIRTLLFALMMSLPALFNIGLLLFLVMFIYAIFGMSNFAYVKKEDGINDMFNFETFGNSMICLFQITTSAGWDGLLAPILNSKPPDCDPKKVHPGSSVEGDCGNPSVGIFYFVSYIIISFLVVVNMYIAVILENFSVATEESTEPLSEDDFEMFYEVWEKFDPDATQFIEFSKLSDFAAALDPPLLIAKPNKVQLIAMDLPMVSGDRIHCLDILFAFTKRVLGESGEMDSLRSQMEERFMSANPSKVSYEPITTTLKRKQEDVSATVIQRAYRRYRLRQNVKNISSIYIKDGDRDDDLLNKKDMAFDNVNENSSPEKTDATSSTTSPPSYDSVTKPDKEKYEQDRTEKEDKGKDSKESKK
Kv1.3 potassium channel (human KCNA3 gene), sequence (P22001 whole entry): as the sequence (P22001 whole entry) above
T2 sequence (Q15858 whole entry): as the sequence (Q15858 whole entry) above

CC[C@H](C)[C@@H]1NC(=O)[C@@H]2CSSC[C@H](NC(=O)[C@H](CCCCN)NC(=O)[C@@H](NC(=O)[C@H](CC(N)=O)NC(=O)[C@@H](NC(=O)[C@@H]3CCCN3C(=O)[C@@H](NC(=O)CNC(=O)[C@H](CO)NC(=O)CN)C(C)C)[C@@H](C)CC)C(C)C)C(=O)N[C@@H](CCCNC(=N)N)C(=O)NCC(=O)N[C@@H](CO)C(=O)N[C@@H](CCCNC(=N)N)C(=O)N[C@@H](CC(=O)O)C(=O)N[C@H]3CSSC[C@H](NC(=O)[C@H](CCCCN)NC(=O)[C@H](CO)NC(=O)[C@H](CC(N)=O)NC1=O)C(=O)N[C@@H](Cc1c[nH]cn1)C(=O)N[C@H](C(=O)N[C@H](C(=O)N1CCC[C@H]1C(=O)O)[C@@H](C)O)CSSC[C@H](NC(=O)[C@@H]1CCCN1C(=O)[C@H](CC(=O)O)NC(=O)[C@H](CC(C)C)NC3=O)C(=O)N[C@@H](CCCCN)C(=O)N[C@@H](CCCCN)C(=O)N[C@@H](C)C(=O)NCC(=O)N[C@@H](CCSC)C(=O)N[C@@H](CCCNC(=N)N)C(=O)N[C@@H](Cc1ccccc1)C(=O)NCC(=O)N[C@@H](CCCCN)C(=O)N2 [SEQ ID NO: 5] (H-GSGVPINVKCRGSRDCLDPCKKAGMRFGKCINSKCHCTP-OH; disulfide 10-30, 16-35, 20-37)
Activity on potassium channels (panel of 20 ion channels): active on a subset of potassium channels | Activity against / inhibition of hERG (Kv11.1) (hERG): showed additional activity | activity at 20 µM (Kv1.3 [1]; [11]): < 50% | Activity against Nav1.7 channels (Nav1.7): showed additional activity | IC50 [2]: > 1000 nM | IC50 [3]: > 1000 nM | IC50 ([4]; test pulse TP1, read-out: IC50 Kv1.3 ion channel inhibition, TP1): > 1000 nM | IC50 ([4]; test pulse TP6, read-out: IC50 Kv1.3 ion channel inhibition, TP6): > 1000 nM | IC50 ([5]; test pulse TP1, read-out: IC50 Kv1.5 ion channel inhibition, TP1): > 1000 nM | IC50 ([5]; test pulse TP6, read-out: IC50 Kv1.5 ion channel inhibition, TP6): > 1000 nM | IC50 ([6]; TP1 (tonic inhibition), read-out: IC50 Nav1.3 ion channel inhibition, TP1): > 1000 nM | IC50 ([6]; TP2 (inactivated state inhibition), read-out: IC50 Nav1.3 ion channel inhibition, TP2): > 1000 nM | IC50 ([7]; TP1 (tonic inhibition), read-out: IC50 Nav1.4 ion channel inhibition, TP1): > 1000 nM | IC50 ([7]; TP2 (inactivated state inhibition), read-out: IC50 Nav1.4 ion channel inhibition, TP2): > 1000 nM | IC50 ([8]; TP1 (tonic inhibition), read-out: IC50 Nav1.7 ion channel inhibition, TP1): > 1000 nM | IC50 ([8]; TP2 (inactivated state inhibition), read-out: IC50 Nav1.7 ion channel inhibition, TP2): > 1000 nM

GSNFKVEGACSKPCRKYCIDKGARNGKCINGRCHCYY [SEQ ID NO: 12]
Kv1.3 inhibition (Kv1.3 [1]; 0.2 or 20 μM, FIG. 2): inhibit Kv1.3, consistent with these results | Kv1.3 inhibition, previously reported (Kv1.3 [9]): previously reported to inhibit Kv1.3

CC[C@H](C)[C@H](NC(=O)[C@H](CCCNC(=N)N)NC(=O)[C@@H](NC(=O)[C@H](CO)NC(=O)CN)C(C)C)C(=O)N1CCC[C@H]1C(=O)N[C@H](C(=O)N[C@@H](CO)C(=O)N[C@H]1CSSC[C@@H]2NC(=O)[C@H](CCCCN)NC(=O)CNC(=O)[C@H](Cc3ccccc3)NC(=O)[C@H](CCCNC(=N)N)NC(=O)[C@H](CCSC)NC(=O)CNC(=O)[C@H](C)NC(=O)[C@H](CC(=O)O)NC(=O)[C@H](CCCCN)NC(=O)[C@@H]3CSSC[C@@H](C(=O)N[C@H](C(=O)N4CCC[C@H]4C(=O)N[C@@H](CCCCN)C(=O)O)[C@@H](C)O)NC(=O)[C@H](CC(=O)O)NC(=O)[C@H](CSSC[C@H](NC(=O)[C@H](CCC(N)=O)NC(=O)CNC(=O)[C@H](CO)NC(=O)[C@H](Cc4c[nH]cn4)NC(=O)[C@H](CCCCN)NC1=O)C(=O)N[C@@H](CC(C)C)C(=O)N[C@@H](CCCCN)C(=O)N1CCC[C@H]1C(=O)N3)NC(=O)[C@H](CCCCN)NC(=O)CNC(=O)[C@H](CC(N)=O)NC(=O)[C@H](CCSC)NC2=O)C(C)C [SEQ ID NO: 6] (H-GSVRIPVSCKHSGQCLKPCKDAGMRFGKCMNGKCDCTPK-OH; disulfide 9-29, 15-34, 19-36)
Activity on potassium channels (panel of 20 ion channels): active on a subset of potassium channels | activity at 20 µM (Kv1.1): < 50% | activity at 0.2 µM (Kv1.3 [1]; Kv1.3, peptide at 0.2 μM, percentage of control, 100% = no change, read-out: Ion channel activity (ion channel inhibition)): < 80% | activity at 20 µM (Kv1.3 [1]; [11]): < 50% | IC50 [10]: > 1000 nM
